Data reported in the kinase profiling compilation of Christmann-Franck et al. (2016).

Tests used:
Assay in all cases: KINOMEscan competition binding
Conditions in all cases: compound 10.0 µM
PAK1 (human) = PAK1 (human) (UniProt Q13153)
PKN3 (M.tuberculosis) = PKN3 (M.tuberculosis) (UniProt Q6P5Z2)
TESK1 (human) = TESK1 (human) (UniProt Q15569)
TEK (human) = TEK (human) (UniProt Q02763)
MAP3K2 (human) = MAP3K2 (human) (UniProt Q9Y2U5)
FGFR1 (human) = FGFR1 (human) (UniProt P11362)
ALK (human) = ALK (human) (UniProt Q9UM73)
FRK (human) = FRK (human) (UniProt P42685)
CDK11B (human) = CDK11B (human) (UniProt P21127)
MAPK9 (human) = MAPK9 (human) (UniProt P45984)
CSNK1A1 (human) = CSNK1A1 (human) (UniProt P48729)
CLK1 (human) = CLK1 (human) (UniProt P49759)
MAP2K2 (human) = MAP2K2 (human) (UniProt P36507)
RPS6KB1 (human) = RPS6KB1 (human) (UniProt P23443)
CDC42BPA (human) = CDC42BPA (human) (UniProt Q5VT25)
STK33 (human) = STK33 (human) (UniProt Q9BYT3)
NTRK2 (human) = NTRK2 (human) (UniProt Q16620)
LATS1 (human) = LATS1 (human) (UniProt O95835)
EIF2AK1 (human) = EIF2AK1 (human) (UniProt Q9BQI3)
SGK3 (human) = SGK3 (human) (UniProt Q96BR1)
PAK3 (human) = PAK3 (human) (UniProt O75914)
MAST1 (human) = MAST1 (human) (UniProt Q9Y2H9)
CSNK2A1 (human) = CSNK2A1 (human) (UniProt P68400)
FGFR2 (human) = FGFR2 (human) (UniProt P21802)
CSNK2A2 (human) = CSNK2A2 (human) (UniProt P19784)
NTRK3 (human) = NTRK3 (human) (UniProt Q16288)
MAPKAPK5 (human) = MAPKAPK5 (human) (UniProt Q8IW41)
MAPK8 (human) = MAPK8 (human) (UniProt P45983)
PRKAA1 (human) = PRKAA1 (human) (UniProt Q13131)
CDK16 (human) = CDK16 (human) (UniProt Q00536)
[1] = tested on: EGFR (human), P00533 [L858R]
CDK8 (human) = CDK8 (human) (UniProt P49336)
RPS6KA4 KD1 (human) = RPS6KA4 KD1 (human) (UniProt O75676)
[2] = tested on: KIT (human), P10721 [D816H]
MAPK3 (human) = MAPK3 (human) (UniProt P27361)

MAPK8 (human), sequence (P45983 whole entry, looked up): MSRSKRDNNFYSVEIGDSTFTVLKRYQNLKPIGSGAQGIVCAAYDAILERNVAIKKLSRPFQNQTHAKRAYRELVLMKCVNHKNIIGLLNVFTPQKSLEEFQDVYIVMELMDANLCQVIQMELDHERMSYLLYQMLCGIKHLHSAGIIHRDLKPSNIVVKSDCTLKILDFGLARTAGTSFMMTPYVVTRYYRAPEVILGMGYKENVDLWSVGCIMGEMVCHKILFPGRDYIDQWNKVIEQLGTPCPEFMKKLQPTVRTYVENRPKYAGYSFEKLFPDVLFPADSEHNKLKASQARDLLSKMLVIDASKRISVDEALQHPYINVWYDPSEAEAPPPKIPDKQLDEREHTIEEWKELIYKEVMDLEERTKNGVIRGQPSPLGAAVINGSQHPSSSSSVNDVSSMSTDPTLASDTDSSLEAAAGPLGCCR
MAST1 (human), sequence (Q9Y2H9 whole entry, looked up): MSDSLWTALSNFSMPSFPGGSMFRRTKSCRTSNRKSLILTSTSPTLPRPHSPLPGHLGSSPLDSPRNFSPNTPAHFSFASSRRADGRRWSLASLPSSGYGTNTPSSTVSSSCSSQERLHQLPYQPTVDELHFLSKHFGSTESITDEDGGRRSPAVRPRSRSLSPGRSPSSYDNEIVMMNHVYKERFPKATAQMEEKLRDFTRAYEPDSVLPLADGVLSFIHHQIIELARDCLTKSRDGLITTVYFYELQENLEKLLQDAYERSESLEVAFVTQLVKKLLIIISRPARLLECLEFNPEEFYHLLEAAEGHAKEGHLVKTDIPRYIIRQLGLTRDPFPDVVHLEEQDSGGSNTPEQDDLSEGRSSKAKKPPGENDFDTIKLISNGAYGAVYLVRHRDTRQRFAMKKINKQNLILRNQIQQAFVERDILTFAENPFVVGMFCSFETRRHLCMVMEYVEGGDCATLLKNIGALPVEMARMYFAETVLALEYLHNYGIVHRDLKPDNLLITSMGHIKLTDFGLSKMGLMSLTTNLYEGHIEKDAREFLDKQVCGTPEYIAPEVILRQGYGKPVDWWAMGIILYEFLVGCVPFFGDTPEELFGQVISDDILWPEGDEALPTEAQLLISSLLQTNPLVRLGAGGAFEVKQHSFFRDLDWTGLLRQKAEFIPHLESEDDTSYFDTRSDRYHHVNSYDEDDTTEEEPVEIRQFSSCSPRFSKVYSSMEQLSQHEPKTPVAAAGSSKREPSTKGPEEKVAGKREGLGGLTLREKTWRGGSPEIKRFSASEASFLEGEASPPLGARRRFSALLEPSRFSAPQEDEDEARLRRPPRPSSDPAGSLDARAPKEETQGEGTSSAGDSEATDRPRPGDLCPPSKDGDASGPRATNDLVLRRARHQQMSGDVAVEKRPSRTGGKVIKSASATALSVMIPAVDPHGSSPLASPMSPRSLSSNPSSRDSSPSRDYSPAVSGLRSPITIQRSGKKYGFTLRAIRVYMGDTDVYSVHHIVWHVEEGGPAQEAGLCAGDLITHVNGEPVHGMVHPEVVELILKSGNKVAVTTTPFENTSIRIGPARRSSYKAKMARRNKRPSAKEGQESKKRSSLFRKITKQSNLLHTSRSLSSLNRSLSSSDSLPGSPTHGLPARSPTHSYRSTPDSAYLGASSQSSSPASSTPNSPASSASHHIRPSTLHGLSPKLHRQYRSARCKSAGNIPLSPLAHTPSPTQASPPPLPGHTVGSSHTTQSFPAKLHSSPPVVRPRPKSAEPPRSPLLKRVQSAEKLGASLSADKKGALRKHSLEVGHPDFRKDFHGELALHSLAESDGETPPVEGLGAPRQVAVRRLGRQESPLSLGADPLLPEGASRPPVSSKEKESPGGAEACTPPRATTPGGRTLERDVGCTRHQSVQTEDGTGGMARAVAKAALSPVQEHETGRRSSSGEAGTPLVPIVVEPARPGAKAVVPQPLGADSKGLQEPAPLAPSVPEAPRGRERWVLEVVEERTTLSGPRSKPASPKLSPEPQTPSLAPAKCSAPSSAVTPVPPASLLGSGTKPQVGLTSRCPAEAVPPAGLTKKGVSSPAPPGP
KIT (human), P10721 [D816H], sequence (P10721 whole entry D816H, looked up): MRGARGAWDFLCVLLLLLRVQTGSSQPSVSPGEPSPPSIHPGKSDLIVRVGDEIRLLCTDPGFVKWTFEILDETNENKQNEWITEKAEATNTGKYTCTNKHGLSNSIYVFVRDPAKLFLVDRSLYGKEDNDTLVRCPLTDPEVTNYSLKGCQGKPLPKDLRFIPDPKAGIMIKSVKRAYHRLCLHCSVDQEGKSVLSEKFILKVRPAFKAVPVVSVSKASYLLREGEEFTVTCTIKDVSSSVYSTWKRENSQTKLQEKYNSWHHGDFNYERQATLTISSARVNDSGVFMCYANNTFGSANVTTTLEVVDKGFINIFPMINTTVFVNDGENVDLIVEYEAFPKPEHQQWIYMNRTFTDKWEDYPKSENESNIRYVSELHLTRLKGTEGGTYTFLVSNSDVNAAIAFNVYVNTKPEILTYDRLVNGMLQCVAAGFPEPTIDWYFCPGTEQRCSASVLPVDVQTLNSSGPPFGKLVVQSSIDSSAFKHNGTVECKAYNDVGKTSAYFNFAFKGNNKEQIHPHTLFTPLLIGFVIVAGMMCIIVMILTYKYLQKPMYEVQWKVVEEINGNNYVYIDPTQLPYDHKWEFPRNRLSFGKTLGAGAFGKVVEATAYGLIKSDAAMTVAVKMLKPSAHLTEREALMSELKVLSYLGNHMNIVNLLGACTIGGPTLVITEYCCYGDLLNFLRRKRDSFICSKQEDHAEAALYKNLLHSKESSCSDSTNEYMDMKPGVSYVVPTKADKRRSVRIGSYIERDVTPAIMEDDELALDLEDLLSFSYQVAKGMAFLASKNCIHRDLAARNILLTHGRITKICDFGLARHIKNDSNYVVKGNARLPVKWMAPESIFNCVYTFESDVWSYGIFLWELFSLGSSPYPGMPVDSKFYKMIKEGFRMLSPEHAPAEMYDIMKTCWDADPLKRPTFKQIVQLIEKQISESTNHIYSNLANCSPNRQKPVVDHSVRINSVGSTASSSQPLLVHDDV
FRK (human), sequence (P42685 whole entry, looked up): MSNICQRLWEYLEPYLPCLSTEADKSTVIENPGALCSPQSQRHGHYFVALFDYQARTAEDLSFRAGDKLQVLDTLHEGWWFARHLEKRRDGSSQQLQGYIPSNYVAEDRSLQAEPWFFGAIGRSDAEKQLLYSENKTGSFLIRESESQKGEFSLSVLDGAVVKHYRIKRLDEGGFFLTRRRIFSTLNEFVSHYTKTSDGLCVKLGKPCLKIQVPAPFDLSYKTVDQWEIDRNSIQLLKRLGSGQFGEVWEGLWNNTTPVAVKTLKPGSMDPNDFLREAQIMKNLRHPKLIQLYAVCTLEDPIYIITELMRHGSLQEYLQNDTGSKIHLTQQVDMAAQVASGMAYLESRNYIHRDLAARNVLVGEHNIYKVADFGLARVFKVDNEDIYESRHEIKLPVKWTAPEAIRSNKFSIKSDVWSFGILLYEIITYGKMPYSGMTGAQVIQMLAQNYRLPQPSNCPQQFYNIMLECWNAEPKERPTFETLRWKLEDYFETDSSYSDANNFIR
TESK1 (human), sequence (Q15569 whole entry, looked up): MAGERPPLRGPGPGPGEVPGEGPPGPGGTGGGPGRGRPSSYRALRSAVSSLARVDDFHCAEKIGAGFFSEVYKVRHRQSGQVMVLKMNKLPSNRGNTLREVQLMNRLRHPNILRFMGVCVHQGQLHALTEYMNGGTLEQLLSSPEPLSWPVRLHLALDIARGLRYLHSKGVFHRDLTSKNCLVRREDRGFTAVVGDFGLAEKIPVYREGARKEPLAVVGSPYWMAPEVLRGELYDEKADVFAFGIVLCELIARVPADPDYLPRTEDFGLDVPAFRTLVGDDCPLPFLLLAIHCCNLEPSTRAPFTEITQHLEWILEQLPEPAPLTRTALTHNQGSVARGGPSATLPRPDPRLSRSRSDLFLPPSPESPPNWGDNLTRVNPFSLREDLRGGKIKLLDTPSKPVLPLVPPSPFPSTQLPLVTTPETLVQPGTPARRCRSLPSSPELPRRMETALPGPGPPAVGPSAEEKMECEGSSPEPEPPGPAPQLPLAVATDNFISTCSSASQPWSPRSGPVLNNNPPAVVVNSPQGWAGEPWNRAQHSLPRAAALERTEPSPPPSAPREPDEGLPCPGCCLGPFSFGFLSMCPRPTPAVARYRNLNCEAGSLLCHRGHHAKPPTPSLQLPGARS
EIF2AK1 (human), sequence (Q9BQI3 whole entry, looked up): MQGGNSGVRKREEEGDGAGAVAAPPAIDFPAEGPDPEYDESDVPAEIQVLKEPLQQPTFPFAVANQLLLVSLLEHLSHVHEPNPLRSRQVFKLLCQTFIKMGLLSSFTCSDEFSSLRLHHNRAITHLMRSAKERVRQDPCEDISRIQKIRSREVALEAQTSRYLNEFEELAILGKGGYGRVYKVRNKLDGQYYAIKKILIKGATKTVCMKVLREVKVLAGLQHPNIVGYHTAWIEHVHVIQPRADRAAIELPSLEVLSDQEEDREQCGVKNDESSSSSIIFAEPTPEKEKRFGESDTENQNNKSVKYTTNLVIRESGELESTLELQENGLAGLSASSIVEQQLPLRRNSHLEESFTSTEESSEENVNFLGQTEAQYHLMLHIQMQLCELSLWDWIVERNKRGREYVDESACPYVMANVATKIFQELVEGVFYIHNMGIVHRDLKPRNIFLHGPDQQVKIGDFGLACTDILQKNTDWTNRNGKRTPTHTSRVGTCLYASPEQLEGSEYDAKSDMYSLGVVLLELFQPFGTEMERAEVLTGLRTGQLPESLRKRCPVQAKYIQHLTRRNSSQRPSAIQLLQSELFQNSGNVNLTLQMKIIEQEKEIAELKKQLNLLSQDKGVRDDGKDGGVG
CSNK1A1 (human), sequence (P48729 whole entry, looked up): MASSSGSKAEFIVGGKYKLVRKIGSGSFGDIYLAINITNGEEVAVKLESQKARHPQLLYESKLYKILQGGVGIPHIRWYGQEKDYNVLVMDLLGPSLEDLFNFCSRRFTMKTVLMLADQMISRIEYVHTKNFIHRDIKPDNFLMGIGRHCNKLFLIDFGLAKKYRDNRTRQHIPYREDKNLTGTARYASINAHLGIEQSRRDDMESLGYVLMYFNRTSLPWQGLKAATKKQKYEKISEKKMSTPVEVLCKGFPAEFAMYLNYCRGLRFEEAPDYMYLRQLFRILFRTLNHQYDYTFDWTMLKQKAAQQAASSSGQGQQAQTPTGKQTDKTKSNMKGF

Compound	kinase still bound, per cent of control (PAK1 (human)) [%]	kinase still bound, per cent of control (PKN3 (M.tuberculosis)) [%]	kinase still bound, per cent of control (TESK1 (human)) [%]	kinase still bound, per cent of control (TEK (human)) [%]	kinase still bound, per cent of control (MAP3K2 (human)) [%]	kinase still bound, per cent of control (FGFR1 (human)) [%]	kinase still bound, per cent of control (ALK (human)) [%]	kinase still bound, per cent of control (FRK (human)) [%]	kinase still bound, per cent of control (CDK11B (human)) [%]	kinase still bound, per cent of control (MAPK9 (human)) [%]	kinase still bound, per cent of control (CSNK1A1 (human)) [%]	kinase still bound, per cent of control (CLK1 (human)) [%]	kinase still bound, per cent of control (MAP2K2 (human)) [%]	kinase still bound, per cent of control (RPS6KB1 (human)) [%]	kinase still bound, per cent of control (CDC42BPA (human)) [%]	kinase still bound, per cent of control (STK33 (human)) [%]	kinase still bound, per cent of control (NTRK2 (human)) [%]	kinase still bound, per cent of control (LATS1 (human)) [%]	kinase still bound, per cent of control (EIF2AK1 (human)) [%]	kinase still bound, per cent of control (SGK3 (human)) [%]	further results
CC1=C(C(=O)Nc2cc3cn[nH]c3cc2F)C(c2ccc(C(F)(F)F)cc2)CC(=O)N1 (stereo not given)	81	92	92	83	79	73	77	53	89	92	86	72	64	50	79	36	76	60	89	100	kinase still bound, per cent of control (PAK3 (human)): 36%; kinase still bound, per cent of control (MAST1 (human)): 77%; kinase still bound, per cent of control (CSNK2A1 (human)): 81%; kinase still bound, per cent of control (FGFR2 (human)): 95%; kinase still bound, per cent of control (CSNK2A2 (human)): 86%; kinase still bound, per cent of control (NTRK3 (human)): 100%; kinase still bound, per cent of control (MAPKAPK5 (human)): 100%; kinase still bound, per cent of control (MAPK8 (human)): 85%; kinase still bound, per cent of control (PRKAA1 (human)): 13%; kinase still bound, per cent of control (CDK16 (human)): 100%; kinase still bound, per cent of control [1]: 90%; kinase still bound, per cent of control (CDK8 (human)): 79%; kinase still bound, per cent of control (RPS6KA4 KD1 (human)): 98%; kinase still bound, per cent of control [2]: 69%; kinase still bound, per cent of control (MAPK3 (human)): 53%
C=CC(=O)Nc1ccc(C(=O)c2sc(Nc3ccc(N4CCN(C)CC4)cc3OC)nc2N)cc1	73	100	100	89	68	38	8.4	48	89	7	73	0.55	89	100	100	39	100	82	100	83	kinase still bound, per cent of control (PAK3 (human)): 100%; kinase still bound, per cent of control (MAST1 (human)): 0%; kinase still bound, per cent of control (CSNK2A1 (human)): 14%; kinase still bound, per cent of control (FGFR2 (human)): 49%; kinase still bound, per cent of control (CSNK2A2 (human)): 37%; kinase still bound, per cent of control (NTRK3 (human)): 93%; kinase still bound, per cent of control (MAPKAPK5 (human)): 14%; kinase still bound, per cent of control (MAPK8 (human)): 4.2%; kinase still bound, per cent of control (PRKAA1 (human)): 100%; kinase still bound, per cent of control (CDK16 (human)): 67%; kinase still bound, per cent of control [1]: 39%; kinase still bound, per cent of control (CDK8 (human)): 100%; kinase still bound, per cent of control (RPS6KA4 KD1 (human)): 95%; kinase still bound, per cent of control [2]: 70%; kinase still bound, per cent of control (MAPK3 (human)): 100%
N#Cc1cc(-c2ccnc(Nc3ccc(-n4cnc(-c5cccnc5)n4)cc3)n2)cc(N2CCOCC2)c1	65	6.3	54	67	31	93	100	92	32	0.1	60	2.5	62	52	68	88	100	100	100	100	kinase still bound, per cent of control (PAK3 (human)): 100%; kinase still bound, per cent of control (MAST1 (human)): 100%; kinase still bound, per cent of control (CSNK2A1 (human)): 2.2%; kinase still bound, per cent of control (FGFR2 (human)): 91%; kinase still bound, per cent of control (CSNK2A2 (human)): 11%; kinase still bound, per cent of control (NTRK3 (human)): 100%; kinase still bound, per cent of control (MAPKAPK5 (human)): 100%; kinase still bound, per cent of control (MAPK8 (human)): 0.05%; kinase still bound, per cent of control (PRKAA1 (human)): 84%; kinase still bound, per cent of control (CDK16 (human)): 6.8%; kinase still bound, per cent of control [1]: 54%; kinase still bound, per cent of control (CDK8 (human)): 80%; kinase still bound, per cent of control (RPS6KA4 KD1 (human)): 100%; kinase still bound, per cent of control [2]: 50%; kinase still bound, per cent of control (MAPK3 (human)): 100%
CCN1CCN(Cc2ccc(NC(=O)c3ccc(C)c(/C=C/c4cnc5[nH]ccc5c4OC)c3)cc2C(F)(F)F)CC1	100	89	15	0.1	0.65	0.1	51	0.6	8.5	0.1	87	14	58	9	15	31	5.2	32	78	38	kinase still bound, per cent of control (PAK3 (human)): 6%; kinase still bound, per cent of control (MAST1 (human)): 100%; kinase still bound, per cent of control (CSNK2A1 (human)): 90%; kinase still bound, per cent of control (FGFR2 (human)): 3.7%; kinase still bound, per cent of control (CSNK2A2 (human)): 95%; kinase still bound, per cent of control (NTRK3 (human)): 0.95%; kinase still bound, per cent of control (MAPKAPK5 (human)): 90%; kinase still bound, per cent of control (MAPK8 (human)): 19%; kinase still bound, per cent of control (PRKAA1 (human)): 20%; kinase still bound, per cent of control (CDK16 (human)): 98%; kinase still bound, per cent of control [1]: 0.1%; kinase still bound, per cent of control (CDK8 (human)): 21%; kinase still bound, per cent of control (RPS6KA4 KD1 (human)): 50%; kinase still bound, per cent of control [2]: 36%; kinase still bound, per cent of control (MAPK3 (human)): 100%
